Holding throughout (assay type): in vivo
Test [1] has as its system Amaranthus retoflexus (AMARE). In words: Pre-emergence biological efficacy, glasshouse pot test. The conditions noted are these: Amaranthus retroflexus, 312 h. In short, it runs like this: (§1)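 Test compound, formulated in acetone/water (50:50) containing 0.5% Tween 20 and diluted into an aqueous spray, was applied at 1000 or 250 g/ha to pots sown one day earlier. Injury was rated after 13 days, 100 meaning total damage.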

In test [2] the test system is Echinochloa crus-galli (ECHCG). The test is described as above. The conditions noted are these: 312 h. In short, it runs like this: as §1
Test [3] deals with Setaria faberi (SETFA). The description is as above. As to conditions: 312 h. In short, it runs like this:
as §1

Test [4] concerns Ipomea hederaceae (IPOHE). The test is described as above. As to conditions: Ipomoea hederacea, 312 h. In short, it runs like this:
as §1

Test [5] deals with Alopecurus myosuroides (ALOMY). The test is described as above. The conditions noted are these: 312 h. In short, it runs like this: as §1
Test [6] has as its system Solanum nigrum (SOLNI). The test is described as above. The conditions noted are these: 312 h. In short, it runs like this: as §1
Test [7] relates to Amaranthus retoflexus (AMARE). Put plainly: Post-emergence biological efficacy, glasshouse pot test. As to conditions: Amaranthus retroflexus, 312 h. In short, it runs like this: (§2)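 Plants were sown in standard soil and grown 8 days in a glasshouse (24/16° C. day/night, 14 hours light, 65% humidity), then sprayed post-emergence at 1000 or 250 g/ha from acetone/water (50:50) with 0.5% Tween 20. Damage was scored visually after 13 days (0 = none, 100 = total).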

The subject of test [8] is Echinochloa crus-galli (ECHCG). The description is as above. The conditions noted are these: 312 h. In short, it runs like this:
as §2

Test [9] deals with Setaria faberi (SETFA). Described as above. The conditions noted are these: 312 h. In short, it runs like this: as §2
The subject of test [10] is Ipomea hederaceae (IPOHE). The description is as above. The conditions noted are these: Ipomoea hederacea, 312 h. In short, it runs like this:
as §2

The test system of test [11] is Alopecurus myosuroides (ALOMY). The test is described as above. The conditions noted are these: 312 h. In short, it runs like this: as §2
Test [12] has as its system Solanum nigrum (SOLNI). The description is as above. The conditions noted are these: 312 h. In short, it runs like this:
as §2

The mark [13] stands for this setting: pre-emergence, 1,000 g/ha, evaluated after 13 days (100=total damage; 0=no damage), read-out: Percentage damage AMARE.
Setting [14] is: pre-emergence, 1,000 g/ha, evaluated after 13 days (100=total damage; 0=no damage), read-out: Percentage damage ECHCG.
The mark [15] stands for this setting: pre-emergence, 1,000 g/ha, evaluated after 13 days (100=total damage; 0=no damage), read-out: Percentage damage SETFA.
Where [16] appears, read: pre-emergence, 1,000 g/ha, evaluated after 13 days (100=total damage; 0=no damage), read-out: Percentage damage IPOHE.
[17] abbreviates: pre-emergence, 1,000 g/ha, evaluated after 13 days (100=total damage; 0=no damage), read-out: Percentage damage ALOMY.
Where [18] appears, read: pre-emergence, 1,000 g/ha, evaluated after 13 days (100=total damage; 0=no damage), read-out: Percentage damage SOLNI.
Where [19] appears, read: post-emergence, 1,000 g/ha, evaluated after 13 days (100=total damage; 0=no damage), read-out: Percentage damage caused to weed species, AMARE.
The mark [20] stands for this setting: post-emergence, 1,000 g/ha, evaluated after 13 days (100=total damage; 0=no damage), read-out: Percentage damage caused to weed species, ECHCG.
The mark [21] stands for this setting: post-emergence, 1,000 g/ha, evaluated after 13 days (100=total damage; 0=no damage), read-out: Percentage damage caused to weed species, SETFA.
The mark [22] stands for this setting: post-emergence, 1,000 g/ha, evaluated after 13 days (100=total damage; 0=no damage), read-out: Percentage damage caused to weed species, IPOHE.
[23] abbreviates: post-emergence, 1,000 g/ha, evaluated after 13 days (100=total damage; 0=no damage), read-out: Percentage damage caused to weed species, ALOMY.
Where [24] appears, read: post-emergence, 1,000 g/ha, evaluated after 13 days (100=total damage; 0=no damage), read-out: Percentage damage caused to weed species, SOLNI.
[25] abbreviates: pre-emergence, rate 1,000 g/ha, evaluated after 13 days (100=total damage to plant; 0=no damage), read-out: Percentage damage caused to weed species, AMARE.
The mark [26] stands for this setting: pre-emergence, rate 1,000 g/ha, evaluated after 13 days (100=total damage to plant; 0=no damage), read-out: Percentage damage caused to weed species, ECHCG.
Where [27] appears, read: pre-emergence, rate 1,000 g/ha, evaluated after 13 days (100=total damage to plant; 0=no damage), read-out: Percentage damage caused to weed species, SETFA.
Setting [28] is: pre-emergence, rate 1,000 g/ha, evaluated after 13 days (100=total damage to plant; 0=no damage), read-out: Percentage damage caused to weed species, IPOHE.
Setting [29] is: pre-emergence, rate 1,000 g/ha, evaluated after 13 days (100=total damage to plant; 0=no damage), read-out: Percentage damage caused to weed species, ALOMY.
Setting [30] is: pre-emergence, rate 1,000 g/ha, evaluated after 13 days (100=total damage to plant; 0=no damage), read-out: Percentage damage caused to weed species, SOLNI.
[31] abbreviates: Rate 1,000 g/ha, post-emergence spray, evaluated after 13 days (100=total damage to plant; 0=no damage to plant), read-out: Percentage damage caused to weed species, post-emergence, AMARE.
Where [32] appears, read: Rate 1,000 g/ha, post-emergence spray, evaluated after 13 days (100=total damage to plant; 0=no damage to plant), read-out: Percentage damage caused to weed species, post-emergence, ECHCG.
Setting [33] is: Rate 1,000 g/ha, post-emergence spray, evaluated after 13 days (100=total damage to plant; 0=no damage to plant), read-out: Percentage damage caused to weed species, post-emergence, SETFA.
Setting [34] is: Rate 1,000 g/ha, post-emergence spray, evaluated after 13 days (100=total damage to plant; 0=no damage to plant), read-out: Percentage damage caused to weed species, post-emergence, IPOHE.
Setting [35] is: Rate 1,000 g/ha, post-emergence spray, evaluated after 13 days (100=total damage to plant; 0=no damage to plant), read-out: Percentage damage caused to weed species, post-emergence, ALOMY.
Where [36] appears, read: Rate 1,000 g/ha, post-emergence spray, evaluated after 13 days (100=total damage to plant; 0=no damage to plant), read-out: Percentage damage caused to weed species, post-emergence, SOLNI.

Take `COC(=O)c1nc(C2CC2)nc(NCc2cccc(OC)c2OC)c1Cl` [Compound 4-109, 5-Chloro-2-cyclopropyl-4-(2,3-dimethoxyphenyl-methylamino)-6-methoxycarbonyl-pyrimidine]: the pest or weed control at 1000 g/ha in test [1] (setting [13]) worked out at 70%; in test [2] (setting [14]), 30%; with Setaria faberi (SETFA) [3] (setting [15]), 30%; in [4] (setting [16]), 80%; in test [5] (setting [17]) it was 20%; in the test with Solanum nigrum (SOLNI) [6] (setting [18]) it was 50%. Besides, the pest or weed control at 1000 g/ha amounted to 100% in test [7] (setting [19]); 60% in test [8] (setting [20]); 80% in the test on Setaria faberi (SETFA) [9] (setting [21]); 100% in [10] (setting [22]); 20% in test [11] (setting [23]); 90% in the test on Solanum nigrum (SOLNI) [12] (setting [24]).

In the case of `C=Cc1ccc(-c2c(NCc3ccco3)nc(C3CC3)nc2C(=O)OC)cc1` [Compound 187-125, 2-Cyclopropyl-5-(4-ethenylphenyl)-4-(furan-2-ylmethylamino)-6-methoxycarbonyl-pyrimidine], the pest or weed control at 1000 g/ha (in test [1] (setting [25]); in test [2] (setting [26]); in the test with Setaria faberi (SETFA) [3] (setting [27]); in test [4] (setting [28]); in test [5] (setting [29]); in the test on Solanum nigrum (SOLNI) [6] (setting [30])) was 0% in each case. Besides, the pest or weed control at 1000 g/ha in [7] (setting [31]) amounted to 70%; in test [8] (setting [32]), 0%; with Setaria faberi (SETFA) [9] (setting [33]), 0%; in test [10] (setting [34]), 40%; in test [11] (setting [35]) it was 0%; with Solanum nigrum (SOLNI) [12] (setting [36]), 50%.

On to `COC(=O)c1ccc(CNc2nc(C3CC3)nc(C(=O)OC)c2Cl)cc1` [Compound 4-94, 5-Chloro-2-cyclopropyl-6-methoxycarbonyl-4-(4-methoxy-carbonylphenyl-methylamino)-pyrimidine], for which the pest or weed control at 1000 g/ha in test [1] (setting [13]) worked out at 70%; in [2] (setting [14]), 10%; with Setaria faberi (SETFA) [3] (setting [15]), 10%; in test [4] (setting [16]) it was 50%; in [5] (setting [17]), 10%; in the test on Solanum nigrum (SOLNI) [6] (setting [18]), 80%. Moreover, the pest or weed control at 1000 g/ha in test [7] (setting [19]) was determined as 100%; in [8] (setting [20]), 10%; with Setaria faberi (SETFA) [9] (setting [21]), 30%; in [10] (setting [22]), 100%; in test [11] (setting [23]) it was 10%; in the test with Solanum nigrum (SOLNI) [12] (setting [24]), 90%.

Take `COC(=O)c1nc(C2CC2)nc(NCc2ccccc2C)c1Cl` [Compound 4-71, 5-Chloro-2-cyclopropyl-6-methoxycarbonyl-4-(2-methylphenyl-methylamino)-pyrimidine]: the pest or weed control at 1000 g/ha in test [1] (setting [13]) came out at 90%; in test [2] (setting [14]), 20%; with Setaria faberi (SETFA) [3] (setting [15]) it was 20%; in test [4] (setting [16]), 70%; in [5] (setting [17]), 20%; with Solanum nigrum (SOLNI) [6] (setting [18]) it was 20%. The pest or weed control at 1000 g/ha in [7] (setting [19]) was determined as 100%; in test [8] (setting [20]) it was 60%; in the test on Setaria faberi (SETFA) [9] (setting [21]), 80%; in test [10] (setting [22]), 100%; in test [11] (setting [23]), 20%; in the test on Solanum nigrum (SOLNI) [12] (setting [24]) it was 90%.

In the case of `COC(=O)c1nc(C2CC2)nc(NC(C)CC2CCCC2)c1Cl` (stereo not drawn) [Compound 4-230, 5-Chloro-4-(2-cyclopentyl-1-methyl-ethylamino)-2-cyclopropyl-6-methoxycarbonyl-pyrimidine], the pest or weed control at 1000 g/ha came to 10% in test [1] (setting [13]); 0% in test [2] (setting [14]); 0% with Setaria faberi (SETFA) [3] (setting [15]); 40% in test [4] (setting [16]); 0% in test [5] (setting [17]); 0% with Solanum nigrum (SOLNI) [6] (setting [18]). For the same compound, the pest or weed control at 1000 g/ha was determined as 40% in test [7] (setting [19]); 0% in test [8] (setting [20]); 0% in the test with Setaria faberi (SETFA) [9] (setting [21]); 40% in test [10] (setting [22]); 0% in test [11] (setting [23]); 40% with Solanum nigrum (SOLNI) [12] (setting [24]).

As to `COC(=O)c1nc(Cl)nc(NCc2ccccc2)c1Cl` [Compound 207-35, 2,5-Dichloro-6-methoxycarbonyl-4-phenylmethylamino-pyrimidine], the pest or weed control at 1000 g/ha worked out at 30% in [1] (setting [25]); 10% in test [2] (setting [26]); 0% in the test with Setaria faberi (SETFA) [3] (setting [27]); 10% in [4] (setting [28]); 10% in test [5] (setting [29]); 0% in the test on Solanum nigrum (SOLNI) [6] (setting [30]). Moreover, the pest or weed control at 1000 g/ha in test [7] (setting [31]) worked out at 50%; in [8] (setting [32]) it was 20%; in the test on Setaria faberi (SETFA) [9] (setting [33]), 30%; in [10] (setting [34]), 10%; in [11] (setting [35]), 30%; in the test with Solanum nigrum (SOLNI) [12] (setting [36]) it was 60%.

Consider `COC(=O)c1nc(C2CC2)nc(NCc2cc(F)c(F)cc2F)c1Cl` [Compound 4-120, 5-Chloro-2-cyclopropyl-6-methoxycarbonyl-4-(2,4,5-trifluoro-phenylmethyl-amino)pyrimidine], for which the pest or weed control at 1000 g/ha came to 60% in test [1] (setting [13]); 20% in test [2] (setting [14]); 10% in the test with Setaria faberi (SETFA) [3] (setting [15]); 40% in test [4] (setting [16]); 10% in [5] (setting [17]); 50% in the test on Solanum nigrum (SOLNI) [6] (setting [18]). Moreover, the pest or weed control at 1000 g/ha in [7] (setting [19]) was 100%; in [8] (setting [20]), 60%; with Setaria faberi (SETFA) [9] (setting [21]), 90%; in test [10] (setting [22]), 100%; in test [11] (setting [23]) it was 20%; in the test on Solanum nigrum (SOLNI) [12] (setting [24]), 100%.

The record behind these values is US20110086759A1, “CHEMICAL COMPOUNDS” (SYNGENTA CROP PROTECTION, INC., priority 2007, published 2011).
